US20160032404A1, “BIOMARKERS FOR PREDICTING RESPONSE OF DLBCL TO TREATMENT WITH A BTK INHIBITOR” (Pharmacyclics LLC, priority 2014, published 2016)

Test system: TMD8-resistant cells
Test: CellTiter-Glo luminescent cell viability assay, TMD8-resistant versus TMD8-WT cells
Assay type: cell-based
Details: ABT-199 for 3 days

SMILES: CC1(C)CCC(CN2CCN(c3ccc(C(=O)NS(=O)(=O)c4ccc(NCC5CCOCC5)c([N+](=O)[O-])c4)c(Oc4cnc5[nH]ccc5c4)c3)CC2)=C(c2ccc(Cl)cc2)C1 [ABT-199]
- sensitivity to drug (effect on cell growth) compared to TMD8-WT cells: more sensitive
